Like-named read-outs stand apart in the source and are kept apart here.

One data set addresses T1, IL33 and ST2 binding (Homo sapiens, UniProt O95760).
T1 sequence (O95760 112-270 limits assumed): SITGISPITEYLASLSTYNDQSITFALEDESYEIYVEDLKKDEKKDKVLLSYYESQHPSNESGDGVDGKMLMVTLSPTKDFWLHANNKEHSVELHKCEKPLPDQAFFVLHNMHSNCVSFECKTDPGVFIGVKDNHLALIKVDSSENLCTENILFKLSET

Data set [1] relates to Human liver cancer cell line HepG2 cells. Briefly: Cellular viability, WST-8 assay, without or with human liver microsomes. In kind it is cell-based. The following applies: for Cellular viability (%) (+) microsome: HepG2, with human liver microsomes; for Cellular viability (%) (−) microsome: HepG2, without human liver microsomes. As for the experimental part: Human liver cancer cell line HepG2 cells were cultured in a medium (high glucose Dulbecco's Modified Eagle Medium, DMEM, HyClone) supplemented with 10% fetal bovine serum (FBS, HyClone) and 1% antibiotic in a thermostat maintained at 37° C. with 5% CO2.
HepG2 cells, which are adherent cells, were […] or presence of human liver microsomes (Gibco) and NADPH regenerating system.
Cell cultures were exchanged using […] of medium (high glucose Dulbecco's Modified Eagle Medium, DMEM, HyClone) and incubated for 24 hours.
After adding 10 μL of WST-8 (abCam), the absorbance was obtained at 460 nm after 5 seconds of orbital shaking with a microplate reader (Tecan, Spark©) 2 hours later.
The mean of the three values obtained in triplicate was calculated and expressed as % cellular viability compared to vehicle treatment.

Data set [2] has as its system IL-6 secretion in the human mast cell line HMC 1.1. Briefly: IL-6 production inhibition assay (IL-33 stimulated HMC 1.1 cells, IL-6 ELISA). The format is cell-based. The following applies: for inhibition at 1 µM: 1 μM compound, read-out: Inhibition of hIL-6 production (%) 1 μM; for inhibition at 10 µM: 10 μM compound, read-out: Inhibition of hIL-6 production (%) 10 μM. As for the experimental part:
Human mast cell line HMC 1.1 cells were cultured in medium (Iscove's Modified Dulbecco's Medium, IMDM, HyClone) supplemented with […] fetal bovine serum (FBS, HyClone) and 1% antibiotics and maintained at 37° C. with 5% CO2.
HMC 1.1 cells, which are non-adherent cells, were cultured in 0.5 mL of culture medium containing 200 nM of IL-33 wild type human recombinant protein after centrifugation of cells in culture flasks filled to […] capacity and incubated for 24 hours with […], 10 μM, 25 μM, 30 μM or 50 μM of Example compound.
Medium was harvested by centrifugation (2,000×g, 5 min) and stored at −80° C. until ELISA assay.
Experiments were performed according to the protocol using the Human IL-6 ELISA kit (abCam).
The average of the three values obtained in triplicate was calculated and the amount of IL-6 secretion was measured using a standard curve. The measured IL-6 secretion was converted to 100% based on the vehicle treatment sample value to obtain the vehicle %.
For orientation: ELISA stands for enzyme-linked immunosorbent assay.

Usually inhibition stands for the change of the read-out against control, counted positive when it falls. On to `COc1ccc(-c2nc(C(=O)NCCN(C)C)c(-c3ccc([N+](=O)[O-])cc3)o2)cc1` [Compound 217, N-(2-(Dimethylamino)ethyl)-2-(4-methoxyphenyl)-5-(4-nitrophenyl)oxazole-4-carboxamide], for which, on IL33 and ST2 binding (30 µM), the inhibition was -38%. On IL33 and ST2 binding (100 µM), the inhibition was -51%. In data set [1] (at 100 μM), the “Cellular viability (%) (+) microsome” value worked out at 34 at % and the “Cellular viability (%) (−) microsome” value is 19 at %.

Turning to `O=C(NCCCn1ccnc1)c1nc(-c2ccc(C(F)(F)F)cc2)oc1-c1ccccc1[N+](=O)[O-]` [Compound 158, N-(3-(1H-Imidazol-1-yl)propyl)-5-(2-nitrophenyl)-2-(4-(trifluoromethyl)phenyl)oxazole-4-carboxamide], at IL33 and ST2 binding (30 µM), the inhibition came to 31%. Moreover, the inhibition at IL33 and ST2 binding (100 µM) turned out to be 26%. In data set [1] (at 50 μM), the “Cellular viability (%) (+) microsome” value is on record as 17 at % and the “Cellular viability (%) (−) microsome” value was found to be 17 at %.

For the compound `CCOC(=O)c1nc(-c2ccc(C(F)(F)F)cc2)oc1-c1ccccc1[N+](=O)[O-]` [Compound 32, Ethyl 5-(2-nitrophenyl)-2-(4-(trifluoromethyl)phenyl)oxazole-4-carboxylate], the inhibition on IL33 and ST2 binding (30 µM) stood at 107%. For the same compound, the inhibition on IL33 and ST2 binding (100 µM) is 108%. Besides, in data set [1] (at 25 μM), the “Cellular viability (%) (+) microsome” value is 95 at % and the “Cellular viability (%) (−) microsome” value is given as 81 at %.

Regarding `CCCNC(=O)c1nc(-c2ccc(C(F)(F)F)cc2)oc1-c1cccnc1` [Compound 308, N-Propyl-5-(pyridin-3-yl)-2-(4-(trifluoromethyl)phenyl)oxazole-4-carboxamide], in data set [2] (24 hours), the inhibition at 1 µM stood at 56% and the inhibition at 10 µM stood at 62%. For the same compound, in data set [1] (at 160 μM), the “Cellular viability (%) (+) microsome” value is 29 at % and the “Cellular viability (%) (−) microsome” value is 27 at %.

`CCOC(=O)c1nc(-c2ccc(C(F)(F)F)cc2)oc1-c1ccccc1N` [Compound 99, Ethyl 5-(2-aminophenyl)-2-(4-(trifluoromethyl)phenyl)oxazole-4-carboxylate]: in data set [1] (at 25 μM), the “Cellular viability (%) (+) microsome” value worked out at 96 at % and the “Cellular viability (%) (−) microsome” value is listed as 79 at %.

Take `CCCNC(=O)c1nc(-c2ccc(SC)cc2)oc1-c1ccccc1` [Compound 317, 2-(4-(Methylthio)phenyl)-5-phenyl-N-propyloxazole-4-carboxamide]: in data set [2] (24 hours), the inhibition at 1 µM came out at 44% and the inhibition at 10 µM stood at 43%. Moreover, in data set [1] (at 160 μM), the “Cellular viability (%) (+) microsome” value came to 89 at % and the “Cellular viability (%) (−) microsome” value stood at 47 at %.

Take `CN(C)CCNC(=O)c1nc(-c2ccc(OC(F)(F)F)cc2)oc1-c1ccccc1` [Compound 203, N-(2-(Dimethylamino)ethyl)-5-phenyl-2-(4-(trifluoromethoxy)phenyl)oxazole-4-carboxamide]: the inhibition at IL33 and ST2 binding (30 µM) was -9%; at IL33 and ST2 binding (100 µM) it was 14%. The “Cellular viability (%) (+) microsome” value in data set [1] (at 50 μM) is reported as 30 at %. In data set [1] (at 50 μM), the “Cellular viability (%) (−) microsome” value turned out to be 19 at %.

`CN(C)CCN1CCN(C(=O)c2nc(-c3ccc(Cl)cc3)oc2-c2ccccc2[N+](=O)[O-])CC1` [Compound 248, (2-(4-Chlorophenyl)-5-(2-nitrophenyl)oxazol-4-yl)(4-(2-(dimethylamino)ethyl)piperazin-1-yl)methanone]: the inhibition on IL33 and ST2 binding (30 µM) is 33%. The inhibition at IL33 and ST2 binding (100 µM) turned out to be 63%. Further, in data set [1] (at 50 μM), the “Cellular viability (%) (+) microsome” value came out at 31 at % and the “Cellular viability (%) (−) microsome” value amounted to 19 at %.

Turning to `CCNC(=O)c1nc(-c2ccc(C(F)(F)F)cc2)oc1-c1cccc(C#N)c1` [Compound 311, 5-(3-Cyanophenyl)-N-ethyl-2-(4-(Trifluoromethyl)phenyl)oxazole-4-carboxamide], in data set [2] (24 hours), the inhibition at 1 µM amounted to 64% and the inhibition at 10 µM was 80%. The inhibition on IL33 and ST2 binding (30 µM) is -5%.

`CN1CCN(CCNC(=O)c2nc(-c3ccc(C(F)(F)F)cc3)oc2-c2ccccc2[N+](=O)[O-])CC1` [Compound 153, N-(2-(4-Methylpiperazin-1-yl)ethyl)-5-(2-nitrophenyl)-2-(4-(trifluoromethyl)phenyl)oxazole-4-carboxamide]: on IL33 and ST2 binding (30 µM), the inhibition worked out at 92%. For the same compound, the inhibition on IL33 and ST2 binding (100 µM) turned out to be 95%. Further, in data set [1] (at 50 μM), the “Cellular viability (%) (+) microsome” value is given as 36 at % and the “Cellular viability (%) (−) microsome” value is recorded as 19 at %.

For the compound `COc1cccc(-c2oc(-c3ccc(C(F)(F)F)cc3)nc2C(=O)NCCN2CCN(C(C)=O)CC2)c1` [Compound 198, N-(2-(4-acetylpiperazin-1-yl)ethyl)-5-(3-methoxyphenyl)-2-(4-(trifluoromethyl)phenyl)oxazole-4-carboxamide], in data set [2] (24 hours), the inhibition at 1 µM was 62% and the inhibition at 10 µM was 77%. The inhibition at IL33 and ST2 binding (30 µM) is 5%.

On to `CCOC(=O)c1nc(-c2cc(F)cc(F)c2)oc1-c1ccccc1[N+](=O)[O-]` [Compound 74, Ethyl 2-(3,5-difluorophenyl)-5-(2-nitrophenyl)oxazole-4-carboxylate], for which, in data set [1] (at 45 μM), the “Cellular viability (%) (+) microsome” value stood at 96 at % and the “Cellular viability (%) (−) microsome” value was 101 at %.

On to `CC(=O)N1CCN(CCNC(=O)c2nc(-c3ccc(C(F)(F)F)cc3)oc2-c2cccnc2)CC1` [Compound 197, N-(2-(4-acetylpiperazin-1-yl)ethyl)-5-(pyridin-3-yl)-2-(4-(trifluoromethyl)phenyl)oxazole-4-carboxamide], for which, in data set [2] (24 hours), the inhibition at 1 µM was 62% and the inhibition at 10 µM came out at 70%. Besides, the inhibition at IL33 and ST2 binding (30 µM) is 99%.

`CSc1ccc(-c2oc(-c3ccc(C(F)(F)F)cc3)nc2C(=O)NCCN2CCN(C(C)=O)CC2)cc1` [Compound 194, N-(2-(4-acetylpiperazin-1-yl)ethyl)-5-(4-(methylthio)phenyl)-2-(4-(trifluoromethyl)phenyl)oxazole-4-carboxamide]: in data set [2] (24 hours), the inhibition at 1 µM is 44% and the inhibition at 10 µM is 68%. For the same compound, the inhibition on IL33 and ST2 binding (30 µM) was 41%.

Take `CCCNC(=O)c1nc(-c2ccc(C(F)(F)F)cc2)oc1-c1ccccc1OC(F)(F)F` [Compound 306, N-Propyl-5-(2-(trifluoromethoxy)phenyl)-2-(4-(trifluoromethyl)phenyl)oxazole-4-carboxamide]: in data set [2] (24 hours), the inhibition at 1 µM is -38% and the inhibition at 10 µM was determined as 45%. In addition, the inhibition at IL33 and ST2 binding (30 µM) was found to be 38%.

As to `CCOC(=O)c1coc(-c2ccc(C(F)(F)F)cc2)n1` [Compound 6, Ethyl 2-(4-(trifluoromethyl)phenyl)oxazole-4-carboxylate], the inhibition at IL33 and ST2 binding (100 µM) worked out at 110%. Also, in data set [1] (at 45 μM), the “Cellular viability (%) (+) microsome” value is listed as 99 at % and the “Cellular viability (%) (−) microsome” value is 66 at %.

On to `CC(=O)NCCNC(=O)c1nc(-c2ccc(C(F)(F)F)cc2)oc1-c1ccccc1[N+](=O)[O-]` [Compound 285, N-(2-acetamidoethyl)-5-(2-nitrophenyl)-2-(4-(trifluoromethyl)phenyl)oxazole-4-carboxamide], for which the inhibition on IL33 and ST2 binding (30 µM) was found to be 73%. Also, at IL33 and ST2 binding (100 µM), the inhibition worked out at 72%. Besides, in data set [1] (at 30 μM), the “Cellular viability (%) (+) microsome” value came to 59 at % and the “Cellular viability (%) (−) microsome” value is on record as 54 at %.

Usually EC50 stands for the concentration giving half of the maximal effect. In the case of `CCNC(=O)c1nc(-c2ccc(C(F)(F)F)cc2)oc1-c1cccc(OC)c1` [Compound 298, N-Ethyl-5-(3-methoxyphenyl)-2-(4-(trifluoromethyl)phenyl)oxazole-4-carboxamide], the inhibition at 0.1 µM in data set [2] (0.1 μM compound, 24 hours, read-out: Inhibition of hIL-6 production (%) 0.1 μM) is 12%. Moreover, in data set [2] (24 hours), the inhibition at 1 µM was found to be 70% and the inhibition at 10 µM worked out at 75%. Moreover, the concentration for a half-maximal effect (EC50) in data set [2] (read-out: Inhibition of hIL-6 production EC50) came out at 640 nM. Moreover, at IL33 and ST2 binding (30 µM), the inhibition stood at 87%.

For the compound `CN(C)CCNC(=O)c1nc(-c2ccc(F)c(F)c2)oc1-c1ccccc1` [Compound 231, 2-(3,4-Difluorophenyl)-N-(2-(dimethylamino)ethyl)-5-phenyloxazole-4-carboxamide], the inhibition at IL33 and ST2 binding (30 µM) is -8%. Further, on IL33 and ST2 binding (100 µM), the inhibition came to 5%. In addition, in data set [1] (at 50 μM), the “Cellular viability (%) (+) microsome” value came to 29 at % and the “Cellular viability (%) (−) microsome” value was 17 at %.

For the origin of these results see patent US20240287052A1, “NOVEL OXAZOLE DERIVATIVE AND PHARMACEUTICAL COMPOSITION FOR PREVENTING OR TREATING ALLERGIC DISEASES COMPRISING THE SAME” (AZCURIS CO., LTD., priority 2021, published 2024).
